13 molecules from patent US20250019387A1 (Frontier Medicines Corporation, priority 0001, published 2025) can be followed below.

By IC50 is commonly meant the concentration that inhibits the measured activity by half.

The structures appear in SMILES notation. Some results are limits rather than exact numbers.

Chain of KRAS G12C and cRAF (Ras-binding domain) interaction (P01116 other isoform, or with tags, fused parts or gaps G12C/C51S/C80L/C118S): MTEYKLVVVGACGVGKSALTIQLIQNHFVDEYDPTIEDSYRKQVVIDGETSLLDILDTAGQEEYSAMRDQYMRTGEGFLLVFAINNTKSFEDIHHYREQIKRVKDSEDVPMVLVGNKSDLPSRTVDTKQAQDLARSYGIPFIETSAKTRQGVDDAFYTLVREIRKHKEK

The experiment addresses KRAS G12C and cRAF (Ras-binding domain) interaction (Homo sapiens (Human), UniProt P01116, C118S/C51S/C80L/G12C). Description: Inhibition of KRAS G12C and cRAF binding (AlphaScreen). Particulars: GMPPNP-loaded KRAS G12C, 19-20 hours incubation with compound; read-out: IC50 (Inhibition of KRAS G12C and cRAF Binding). The gist of the method:
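Compounds (DMSO) preincubated 19-20 h at room temperature, then RBD with streptavidin donor and glutathione acceptor beads added in 25 mM Hepes pH 7.4, 150 mM NaCl, 5 mM MgCl2, 0.01% Triton X-100, 2% DMSO for 60-90 min. Emission 570 nm (excitation 680 nm); IC50 by 4-parameter fit. Counter-screen used biotin-AviTag-GST instead of RBD.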
(Alpha assays give light when donor and acceptor beads are brought close together.)
Take `C[C@@H](F)c1noc(/C=C/C(=O)N2CC[C@@H](N(C)c3nc(OC[C@@]45CCCN4C[C@H](F)C5)nc4c(F)c(-c5cccc6cccc(Cl)c56)ncc34)C2)n1` [Example 84, (E)-1-((R)-3-((7-(8-chloronaphthalen-1-yl)-8-fluoro-2-(((2R,7aS)-2-fluorotetrahydro-1H-pyrrolizin-7a(5H)-yl)methoxy)pyrido[4,3-d]pyrimidin-4-yl)(methyl)amino)pyrrolidin-1-yl)-3-(3-((R)-1-fluoroethyl)-1,2,4-oxadiazol-5-yl)prop-2-en-1-one]: the concentration for half-maximal inhibition (IC50) is under 10 nM.

For `CC(C)c1noc(/C=C/C(=O)N2CC[C@@H](N(C)c3nc(OCC45CCCN4CCC5)nc4c(F)c(-c5cccc6ccc(F)c(Cl)c56)ncc34)C2)n1` [Example 85, (R,E)-1-(3-((7-(8-chloro-7-fluoronaphthalen-1-yl)-8-fluoro-2-((hexahydro-1H-pyrrolizin-7a-yl)methoxy)pyrido[4,3-d]pyrimidin-4-yl)(methyl)amino)pyrrolidin-1-yl)-3-(3-isopropyl-1,2,4-oxadiazol-5-yl)prop-2-en-1-one], the IC50 is under 10 nM.

On to `Cc1noc(/C=C/C(=O)N2CC(CN(C)c3nc(OC[C@@]45CCCN4C[C@H](F)C5)nc4c(F)c(-c5cc(O)cc6ccccc56)ncc34)C2)n1` [Example 86, (E)-1-(3-(((8-fluoro-2-(((2R,7aS)-2-fluorotetrahydro-1H-pyrrolizin-7a(5H)-yl)methoxy)-7-(3-hydroxynaphthalen-1-yl)pyrido[4,3-d]pyrimidin-4-yl)(methyl)amino)methyl)azetidin-1-yl)-3-(3-methyl-1,2,4-oxadiazol-5-yl)prop-2-en-1-one], for which the IC50 is under 10 nM.

With `C=CC(=O)N1C[C@H](N(C)c2nc(OC[C@@]34CCCN3C[C@H](F)C4)nc3c(F)c(-c4cccc5cccc(Cl)c45)ncc23)C[C@@H]1CC#N` [Example 87, 2-((2R,4R)-1-acryloyl-4-((7-(8-chloronaphthalen-1-yl)-8-fluoro-2-(((2R,7aS)-2-fluorotetrahydro-1H-pyrrolizin-7a(5H)-yl)methoxy)pyrido[4,3-d]pyrimidin-4-yl)(methyl)amino)pyrrolidin-2-yl)acetonitrile], the IC50 is 100 to 500 nM.

On to `CN(c1nc(OC[C@@]23CCCN2C[C@H](F)C3)nc2c(F)c(-c3cccc4ccc(F)c(Cl)c34)ncc12)[C@@H]1CCN(C(=O)/C=C/c2nc(C(C)(C)O)no2)C1` [Example 88, (E)-1-((R)-3-((7-(8-chloro-7-fluoronaphthalen-1-yl)-8-fluoro-2-(((2R,7aS)-2-fluorotetrahydro-1H-pyrrolizin-7a(5H)-yl)methoxy)pyrido[4,3-d]pyrimidin-4-yl)(methyl)amino)pyrrolidin-1-yl)-3-(3-(2-hydroxypropan-2-yl)-1,2,4-oxadiazol-5-yl)prop-2-en-1-one], for which the IC50 was under 10 nM.

Turning to `CN(CC1CN(C(=O)/C=C/CN2CCOCC2)C1)c1nc(OC[C@@]23CCCN2C[C@H](F)C3)nc2c(F)c(-c3cccc4cccc(Cl)c34)ncc12` [Example 89, (E)-1-(3-(((7-(8-chloronaphthalen-1-yl)-8-fluoro-2-(((2R,7aS)-2-fluorotetrahydro-1H-pyrrolizin-7a(5H)-yl)methoxy)pyrido[4,3-d]pyrimidin-4-yl)(methyl)amino)methyl)azetidin-1-yl)-4-morpholinobut-2-en-1-one], the concentration for half-maximal inhibition (IC50) lay in the range of 10 to 100 nM.

Regarding `CN(c1nc(OC[C@@]23CCCN2C[C@H](F)C3)nc2c(F)c(-c3cccc4cccc(Cl)c34)ncc12)[C@@H]1CCN(C(=O)/C=C/CN2CCOCC2)C1` [Example 90, (E)-1-((R)-3-((7-(8-chloronaphthalen-1-yl)-8-fluoro-2-(((2R,7aS)-2-fluorohexahydro-1H-pyrrolizin-7a-yl)methoxy)pyrido[4,3-d]pyrimidin-4-yl)(methyl)amino)pyrrolidin-1-yl)-4-morpholinobut-2-en-1-one], the concentration for half-maximal inhibition (IC50) was in the range of 10 to 100 nM.

As to `CN(CC1CN(C(=O)C#CCN2CCOCC2)C1)c1nc(OC[C@@]23CCCN2C[C@H](F)C3)nc2c(F)c(-c3cccc4cccc(Cl)c34)ncc12` [Example 91, 1-(3-(((7-(8-chloronaphthalen-1-yl)-8-fluoro-2-(((2R,7aS)-2-fluorotetrahydro-1H-pyrrolizin-7a(5H)-yl)methoxy)pyrido[4,3-d]pyrimidin-4-yl)(methyl)amino)methyl)azetidin-1-yl)-4-morpholinobut-2-yn-1-one], the IC50 fell in the range of 100 to 500 nM.

As for `CN(c1nc(OC[C@@]23CCCN2C[C@H](F)C3)nc2c(F)c(-c3cccc4cccc(Cl)c34)ncc12)[C@@H]1CCN(C(=O)C#CCN2CCOCC2)C1` [Example 92, 1-((R)-3-((7-(8-chloronaphthalen-1-yl)-8-fluoro-2-(((2R,7aS)-2-fluorohexahydro-1H-pyrrolizin-7a-yl)methoxy)pyrido[4,3-d]pyrimidin-4-yl)(methyl)amino)pyrrolidin-1-yl)-4-morpholinobut-2-yn-1-one], the IC50 is over 500 nM.

In the case of `CN(c1nc(OC[C@@]23CCCN2C[C@H](F)C3)nc2c(F)c(-c3cccc4cccc(Cl)c34)ncc12)[C@@H]1CCN(C(=O)/C=C/c2nc(C3(C)COC3)no2)C1` [Example 95, (E)-1-((R)-3-((7-(8-chloronaphthalen-1-yl)-8-fluoro-2-(((2R,7aS)-2-fluorotetrahydro-1H-pyrrolizin-7a(5H)-yl)methoxy)pyrido[4,3-d]pyrimidin-4-yl)(methyl)amino)pyrrolidin-1-yl)-3-(3-(3-methyloxetan-3-yl)-1,2,4-oxadiazol-5-yl)prop-2-en-1-one], the half-maximal inhibitory concentration (IC50) was under 10 nM.

In the case of `CN(c1nc(OC[C@@]23CCCN2C[C@H](F)C3)nc2c(F)c(-c3cccc4ccc(F)c(Cl)c34)ncc12)[C@@H]1CCN(C(=O)/C=C/CN2CCOCC2)C1` [Example 96, (E)-1-((R)-3-((7-(8-chloro-7-fluoronaphthalen-1-yl)-8-fluoro-2-(((2R,7aS)-2-fluorotetrahydro-1H-pyrrolizin-7a(5H)-yl)methoxy)pyrido[4,3-d]pyrimidin-4-yl)(methyl)amino)pyrrolidin-1-yl)-4-morpholinobut-2-en-1-one], the IC50 was 100 to 500 nM.

`C=CC(=O)N1CC(CN(C)c2nc(OC[C@@]34CCCN3C[C@H](F)C4)nc3c(F)c(-c4cc(O)cc5cccc(Cl)c45)ncc23)C1` [Example 97, 1-(3-(((7-(8-chloro-3-hydroxynaphthalen-1-yl)-8-fluoro-2-(((2R,7aS)-2-fluorotetrahydro-1H-pyrrolizin-7a(5H)-yl)methoxy)pyrido[4,3-d]pyrimidin-4-yl)(methyl)amino)methyl)azetidin-1-yl)prop-2-en-1-one]: the IC50 is under 10 nM.

`CC(C)c1noc(/C=C/C(=O)N2CC[C@@H](N(C)c3nc(OC[C@@]45CCCN4C[C@H](F)C5)nc4c3CCN(c3cccc5ccc(F)c(Cl)c35)C4)C2)n1` [Example 99, (E)-1-((R)-3-((7-(8-chloro-7-fluoronaphthalen-1-yl)-2-(((2R,7aS)-2-fluorohexahydro-1H-pyrrolizin-7a-yl)methoxy)-5,6,7,8-tetrahydropyrido[3,4-d]pyrimidin-4-yl)(methyl)amino)pyrrolidin-1-yl)-3-(3-isopropyl-1,2,4-oxadiazol-5-yl)prop-2-en-1-one]: the IC50 lay in the range of 10 to 100 nM.
